System: HepG2 cells
Experiment: HepG2 cell proliferation measured by MTT method
Type: cell-based
Conditions: peptide at 0.1, 0.3 and 0.6 mM, 24 hours, compared with other synthetic peptides
Experimental: Chemical systhesis was conducted in accordance with the peptide sequences obtained by mass spectrometry identification analysis of Example 1 to obtain synthetic peptides. The effect of each peptide on HepG2 cell proliferation was studied, and the specific steps were as follows:
1) HepG2 cell culture: hepG2 cells were obtained from the ATCC cell bank and were cultured in a DMEM medium containing 10% FBS at 37° C. in a 5% CO2 cell incubator. Cells were cultured in a 25 cm ^2 flask, passaged when cells were grown to a density of 70% to 90%, and seeded in a 96-well plate.
2) Peptide fragment treatment: after 24 hours of cell culture in the 96-well plate, the original DMEM medium was aspirated from the wells. DMEM containing peptide fragments at concentrations of 0.1, 0.3, and 0.6 mM were added to each well to continue culturing for 24 hours.
3) Cell proliferation rate measured by MTT method: MTT at a concentration of 5 mg/mL was added to a 96-well plate in 20 μL per well. After incubation for 4 hours, the liquid was aspirated from each well. 150 μL DMSO was added to each well. The absorbance was measured after reacting for 20 min.

Phe-Thr-Leu-Glu (FTLE) [oligopeptide identified in chili pepper seed zymolyte, chemically synthesized for testing]
HepG2 cell inhibition rate: better HepG2 cell inhibition rate than other oligopeptides
